From patent US12371453B2, “Polypeptide having antibacterial activity, composition for preventing or treating sepsis comprising same, and antibacterial composition” (priority 2019, dated 2025)
Like-named read-outs stand apart in the source and are kept apart here. Square brackets hold non-standard residues; d marks the D form. Peptide text beside a SMILES is read from it.

Legend:
[1] = system: Acinetobacter baumannii (ATCC 19606); experiment: microbe, parasite or virus in culture; conditions: Acinetobacter baumannii
Method: (§1) To compare the antibacterial activity between the four commercially available antibiotics (ampicillin, gentamicin, levofloxacin and imipenem) and the allD FP13-NH2 (AcOH) peptide, an antibacterial activity test was performed to measure the minimum inhibitory concentrations (MIC50 and MIC80) for gram-negative and gram-positive standard strains (Escherichia coli DH5α, Escherichia coli K1, Acinetobacter baumannii, Pseudomonas aeruginosa, Salmonella enteritidis, Salmonella typhimurium, and Klebsiella pneumoniae).
(§2) More specifically, 100 μL of a medium was dispensed into each well of a 96-well plate, and in the first column, an antibiotic and a peptide in 200 μL of the medium were dispensed. 1/2 serial dilution was performed from columns 1 to 11, and gram-negative and gram-positive bacteria which had been previously cultured were diluted (OD600 nm value in dilution: approximately 0.0025) and dispensed into each well. The plate was incubated in a 37° C. incubator for 4 hours, and measured at OD600 nm.

[2] = system: Escherichia coli DH5α (ATCC PTA-4750); experiment: microbe, parasite or virus in culture; conditions: Escherichia coli, 4 h
Method: as §1, §2

Escherichia coli K1 = experiment: microbe, parasite or virus in culture; conditions: Escherichia coli
Method: as §1, §2

[3] = system: Klebiella pneumoniae (ATCC 13883); experiment: microbe, parasite or virus in culture; conditions: for MIC: Klebsiella pneumoniae
Method: as §1, §2

[4] = system: Pseudomanas aeruginosa PAO1 (ATCC 47085D-5); experiment: microbe, parasite or virus in culture; conditions: for MIC: Pseudomonas aeruginosa
Method: as §1, §2

[5] = system: Salmonela enteritidis (ATCC 13076); experiment: microbe, parasite or virus in culture; conditions: Salmonella enterica
Method: as §1, §2

[6] = system: Salmonela typhimurium (ATCC 53648); experiment: microbe, parasite or virus in culture; conditions: Salmonella enterica
Method: as §1, §2

CR-Klebsiella pneumoniae = system: CR-Klebsiella pneumoniae
Method: (§3) The antibacterial activity was evaluated according to an antibacterial activity test method for measuring the minimum inhibitory concentration 50 (MIC50; the minimal concentration that kills 50% of bacteria).
as §2, with “11” for “11,”, “five types of antibiotic-resistant” for “gram-negative and gram-positive”, “bacteria (ESBL-resistant E. coli, carbapenem-resistant A. baumannii, carbapenem-resistant Klebsiella pneumoniae, carbapenem-resistant Pseudomonas aeruginosa, colistin-resistant Acinetobactor baumannii),” for “bacteria”, “cultured,” for “cultured”

[7] = system: Colistin resistant AB (Acinetobactor baumannii)
Method: as §3
as §2, with “11” for “11,”, “five types of antibiotic-resistant” for “gram-negative and gram-positive”, “bacteria (ESBL-resistant E. coli, carbapenem-resistant A. baumannii, carbapenem-resistant Klebsiella pneumoniae, carbapenem-resistant Pseudomonas aeruginosa, colistin-resistant Acinetobactor baumannii),” for “bacteria”, “cultured,” for “cultured”

ESBL (E. coli) = system: ESBL (E. coli)
Method: as §3
as §2, with “11” for “11,”, “five types of antibiotic-resistant” for “gram-negative and gram-positive”, “bacteria (ESBL-resistant E. coli, carbapenem-resistant A. baumannii, carbapenem-resistant Klebsiella pneumoniae, carbapenem-resistant Pseudomonas aeruginosa, colistin-resistant Acinetobactor baumannii),” for “bacteria”, “cultured,” for “cultured”

[8] = system: Carbapenem resistant (CR)-Acinetobactor baumannii; experiment: organism not typed
Method: as §3
as §2, with “11” for “11,”, “five types of antibiotic-resistant” for “gram-negative and gram-positive”, “bacteria (ESBL-resistant E. coli, carbapenem-resistant A. baumannii, carbapenem-resistant Klebsiella pneumoniae, carbapenem-resistant Pseudomonas aeruginosa, colistin-resistant Acinetobactor baumannii),” for “bacteria”, “cultured,” for “cultured”

[9] = LPS binding affinity by Isothermal Titration Calorimeter (ITC); set-up: species or system E. coli K1; conditions: for Kd: peptide binding to LPS, read-out: Kd (calculated by ITC); for LPS binding affinity (in words): compared with FP1 (wild type, WT)
Source text: FPT (ADK 44-54) is denoted by wild type (WT), and peptides in which a point mutation occurred at various sites in WT were manufactured (FP3, FP5, FP6, and FP9). To increase the interaction with LPS in a residue sequence of FP3, peptides were designed based on FP3- and LPS-binding models (FP12-NH2 and FP13-NH2), and peptides were designed by additionally introducing a non-natural amino acid and an amino acid isomer (allomeric D-type amino acid) (allD FP12-NH2, allD FP13-NH2, allD FP-13-9a, allD FP-13-9w, allD FP-13-9k, and allD FP13-NH2 (AcOH)). In addition, an N-terminus PEGylated peptide (PEG-alld FP13-NH2 (AcOH)) was additionally designed, synthesized, and provided by ANYGEN, Co. Ltd. The binding affinity between each of the provided peptides and lipopolysaccharide (LPS) was confirmed through measuring the binding affinity (Kd) using Isothermal Titration Calorimeter (ITC).
Specifically, a method of analyzing binding affinity (Kd) between a peptide and LPS is as follows.
Measurement was carried out using a Malvern MicroCal PEAQ-ITC cell instrument, and the following pretreatment was carried out to confirm interaction with LPS. The amount and morphology of a sample cell are 300 μL and coin-shaped, fixed-in-place, respectively; a syringe rotation rate was 1,200 rpm; and a temperature was 30° C., 35° C. or 25° C.
Before the experiment, LPS and the peptide were previously diluted with PBS, thereby preparing 2 mM LPS and 0.2 mM peptide. 300 μL of the peptide was added into cells in the ITC instrument, which had been washed, and 40 μL of LPS was put into a syringe. After measurement conditions for ITC (temperature, number of injections) were set, the syringe was inserted into the cell, and ITC measurement was started. When the measurement was completed, analysis is performed, and the Kd values of LPS and the peptide were calculated.

[10] = ATCC19606, read-out: MIC (μg/ml) 50%
[11] = ATCC19606, read-out: MIC (μg/ml) 80%
[12] = colistin resistant A. baumannii
[13] = ATCC13883, read-out: MIC (μg/ml) 50%
[14] = ATCC13883, read-out: MIC (μg/ml) 80%
[15] = PAO1, read-out: MIC (μg/ml) 50%
[16] = PAO1, read-out: MIC (μg/ml) 80%

Row | Molecule | MIC [1, 10] | MIC [1, 11] | MIC ([2]; read-out: MIC (μg/ml) 50%) | MIC ([2]; read-out: MIC (μg/ml) 80%) | MIC (Escherichia coli K1; K1, read-out: MIC (μg/ml) 50%) | MIC (Escherichia coli K1; K1, read-out: MIC (μg/ml) 80%) | MIC ([5]; read-out: MIC (μg/ml) 50%) | MIC ([5]; read-out: MIC (μg/ml) 80%) | MIC ([6]; read-out: MIC (μg/ml) 50%) | MIC ([6]; read-out: MIC (μg/ml) 80%) | Kd [9] | LPS binding affinity (in words) [9] | other results
1 | CC1(C)S[C@@H]2[C@H](NC(=O)[C@H](N)c3ccccc3)C(=O)N2[C@H]1C(=O)O [Ampicillin, ampicillin] | < 32 µg/mL | < 64 µg/mL | < 2 µg/mL | < 4 µg/mL | < 4 µg/mL | < 8 µg/mL | < 4 µg/mL | < 8 µg/mL | < 1 µg/mL | < 2 µg/mL | – | – | MIC (μg/ml) 50% ([3]; Klebsiella pneumoniae ATCC 13883, 50% growth inhibition): no effect; MIC (μg/ml) 80% ([3]; Klebsiella pneumoniae ATCC 13883, 80% growth inhibition): no effect; MIC (μg/ml) 50% ([4]; Pseudomonas aeruginosa PAO1, 50% growth inhibition): no effect; MIC (μg/ml) 80% ([4]; Pseudomonas aeruginosa PAO1, 80% growth inhibition): no effect; MIC50, CR-Klebsiella pneumoniae (CR-Klebsiella pneumoniae; CR-K. pneumoniae): No effect; MIC50, Colistin resistant AB [7, 12]: No effect; MIC50, ESBL (E. coli) (ESBL (E. coli); ESBL E. coli): No effect; MIC50 ([8]; read-out: MIC50, Carbapenem resistant (CR)-Acinetobactor baumannii): < 16 µg/mL
2 | C[C@@H](O)[C@H]1C(=O)N2C(C(=O)O)=C(SCCN=CN)C[C@H]12 [Imipenem, imipenem] | < 8 µg/mL | < 15 µg/mL | < 4 µg/mL | < 8 µg/mL | < 0.5 µg/mL | < 1 µg/mL | < 4 µg/mL | < 8 µg/mL | < 4 µg/mL | < 8 µg/mL | – | – | MIC [3, 13]: < 2 µg/mL; MIC [3, 14]: < 8 µg/mL; MIC [4, 15]: < 32 µg/mL; MIC [4, 16]: < 64 µg/mL; MIC50, CR-Klebsiella pneumoniae (CR-Klebsiella pneumoniae; CR-K. pneumoniae): No effect; MIC50, Colistin resistant AB [7, 12]: No effect; MIC50, ESBL (E. coli) (ESBL (E. coli); ESBL E. coli): No effect; MIC50, Carbapenem resistant (CR)-Acinetobactor baumannii ([8]; CR-A. baumannii): No effect
3 | C[C@H]1COc2c(N3CCN(C)CC3)c(F)cc3c(=O)c(C(=O)O)cn1c23 [Levofloxacin, levofloxacin] | < 0.5 µg/mL | < 1 µg/mL | < 0.5 µg/mL | < 1 µg/mL | < 0.5 µg/mL | < 1 µg/mL | < 0.5 µg/mL | < 1 µg/mL | < 0.5 µg/mL | < 1 µg/mL | – | – | MIC [3, 13]: < 0.5 µg/mL; MIC [3, 14]: < 1 µg/mL; MIC [4, 15]: < 0.5 µg/mL; MIC [4, 16]: < 1 µg/mL
4 | CC(C)C[C@@H](NC(=O)[C@H](N)CCCNC(=N)N)C(=O)N[C@H](CCCNC(=N)N)C(=O)N[C@@H](C(=O)N[C@H](CCCCN)C(=O)N[C@H](CC(C)C)C(=O)N[C@H](CCCNC(=N)N)C(=O)N[C@H](CCCNC(=N)N)C(=O)N[C@H](Cc1c[nH]c2ccccc12)C(=O)N[C@H](CC(C)C)C(=O)N[C@H](CCCNC(=N)N)C(N)=O)C(C)C [allD FP21-NH2] (H-[dR][dL][dR][dV][dK][dL][dR][dR][dW][dL][dR]-NH2; N-terminus assumed) | – | – | – | – | – | – | – | – | – | – | – | – | MIC50, CR-Klebsiella pneumoniae (CR-Klebsiella pneumoniae; CR-): <4 µg/mL; MIC50, Colistin resistant AB [7]: <4 µg/mL; MIC50, ESBL (E. coli) (ESBL (E. coli); ESBL): <0.5 µg/mL; MIC50, Carbapenem resistant (CR)-Acinetobactor baumannii [8]: <1 µg/mL
5 | KLGVEAKRYLD [FP1(WT), reference compound] | – | – | – | – | – | – | – | – | – | – | 238 µM | – | –
6 | KLGVEAKRYLR [FP3] | – | – | – | – | – | – | – | – | – | – | 332 µM | strong LPS binding affinity | –
7 | KLGVEALRYLD [FP9] | – | – | – | – | – | – | – | – | – | – | 326 µM | strong LPS binding affinity | –
8 | KLRVKLRRWLR [allD FP-13-9w-NH2] | – | – | – | – | – | – | – | – | – | – | 17.4 µM | strong LPS binding affinity | –
